This note sets out measurements from patent publication US20260335388A1, “COMBINATION THERAPIES WITH ONCOLYTIC ADENOVIRUS AND TOPOISOMERASE I INHIBITORS OR PRODRUGS THEREOF” (priority 2022, published 2026).

Like-named read-outs stand apart in the source and are kept apart here.

The test system of one experiment is E1a. The experiment in a line: Immunoblot of E1a / E2F-1 in VCN-01-infected Y79 cells with further chemotherapeutics. Type of experiment: cell-based. The settings on record: for expression of VCN-01 proteins (E1a): VCN-01 50 MOI, drug added at 24 h, lysis at 48 h (FIG. 7); for expression of E2F-1 and E1A: Y79 cells pre-exposed to VCN-01 (FIG. 13H). As for the experimental part:
2 million Y79 retinoblastoma cells were infected with 50 MOIs of VCN-01. […] Etoposide is topoisomerase 2 inhibitor.
In all experiments, 6-well culture plates containing 2×10^6 cells were used. […] The experiments were controlled by adding culture medium instead of the second treatment. […] The analyses were expanded to other chemotherapeutic agents including hydroxyurea ([…]), etoposide (2 μM), irinotecan (10 μM) or SN-38 (1 μM).
Near-infrared labeled secondary antibodies (Odyssey CLx, LI-COR Inc. Bad Homburg, Germany) were used for detection.

The subject of experiment [1] is HSJD-NB-005 neuroblastoma. Nature of the experiment: Antitumor activity in neuroblastoma PDX HSJD-NB-005. Type of experiment: in vivo, mouse. The settings on record: single treatment (FIG. 24D,F). As for the experimental part:
PDX of neuroblastoma (pediatric solid tumor) were implanted subcutaneously into athymic nude mice. Tumor model was HSJD-NB-005. Upon engraftment (tumor volumes ranging 100-500 mm^3), treatments were started. The activity of topotecan vs. irinotecan in combination with VCN-01 was evaluated. The following groups of mice were included in the study, with an n of 6 tumors per group: • Group 1: no treatment • Group 2: topotecan i.p. at 0.6 mg/kg, Day 1-5 • Group 3: irinotecan i.p. at 10 mg/kg, Day 1-5 • Group 4: VCN-01 i.t at 3E9 vp/tumor, Day 1 • Group 5: VCN-01 i.t at 3E9 vp/tumor, Day 1 (morning)+topotecan i.p. at 0.6 mg/kg, Day 1-5 • Group 6: VCN-01 i.t at 3E9 vp/tumor, Day 1 (morning)+irinotecan i.p. at 10 mg/kg, Day 1-5
Antitumor activity in extracranial pediatric solid tumors. 5-10 mm^3 fresh fragments of Ewing sarcoma or neuroblastoma PDX were implanted in both flanks of mice. Upon s.c. engraftment (tumor volume 150-200 mm^3), mice received topotecan (0.6 mg/kg, i.p., days 1-5), VCN-01 (3×10^9 vp in 20 µL vehicle, intratumoral, day 1), or the combination. In two additional groups, an alternative topoisomerase 1 inhibitor, irinotecan (10 mg/kg, i.p., on days 1-5) we used in place of topotecan. Upon completion of treatments, tumor volumes were followed until endpoint (1500 mm^3), or until day 80.

For a further experiment, the system named is Y79 tumors. Type of experiment: in vivo, mouse. The settings on record: systemic drug after intratumoral VCN-01 3×10E^9 vp/tumor; 5 or 15 days (FIGS. 2A-B).
For experiment [2], the system named is Y79 cells and primary retinoblastoma cultures. The class given is cell-based.
The test system of experiment [3] is HSJD-RBT-5 retinoblastoma cells. The experiment in a line: cells. The class given is cell-based. As to conditions: Homo sapiens.
In experiment [4] the test system is HSJD-RBT-7 retinoblastoma cells. The experiment in a line: cells. Type of experiment: cell-based. As to conditions: Homo sapiens.
Experiment [5] has as its system HSJD-RBVS-10 retinoblastoma cells. The experiment in a line: cells. The class given is cell-based. The settings on record: Homo sapiens.
For another experiment, the system named is Y79 retinoblastoma cells. The experiment in a line: cells. Type of experiment: cell-based.
The test system of the next experiment is retinoblastoma cells. The class given is cell-based.
[6] abbreviates: read-out: IC50, Melphalan single agent.
The mark [7] stands for this setting: read-out: IC50, Melphalan with VCN-01 (10 MOI).

As for `CCc1c2c(nc3ccc(OC(=O)N4CCC(N5CCCCC5)CC4)cc13)-c1cc3c(c(=O)n1C2)COC(=O)[C@]3(O)CC` [irinotecan], the “expression of VCN-01 proteins (E1a)” value with E1a was “does not work in vitro”. The “response of xenograft to single treatment” value in [1] is recorded as “highly resistant”.
Take `NC(=O)NO` [hydroxyurea]: in the experiment on E1a, the “expression of E2F-1 and E1A” value is listed as “did not modify the levels of these proteins”. In addition, in the experiment with Y79 tumors, the “VCN-01 genome content in tumors” value was “the enhancement of VCN-01 replication in vivo appears to be specific to topotecan”. In [2] (cells pre-infected with AdTLRGDK (FIG. 18E, FIG. 19A)), the “transgene expression, virus first” value is given as “increased transgene expression”. In experiment [2] (drug exposure before viral infection (FIG. 18E)), the “viral transduction, drug first” value is “did not enhance viral transduction”.
Consider `COc1cc([C@@H]2c3cc4c(cc3[C@@H](O[C@@H]3O[C@@H]5CO[C@@H](C)O[C@H]5[C@H](O)[C@H]3O)[C@H]3COC(=O)[C@H]23)OCO4)cc(OC)c1O` [etoposide], for which, in the experiment on E1a, the “expression of VCN-01 proteins (E1a)” value is on record as “does not induce the same effect”; the “expression of E2F-1 and E1A” value is on record as “did not modify the levels of these proteins”.
Take SN-38: in the experiment with E1a, the “expression of VCN-01 proteins (E1a)” value is “increases expression of VCN-01 proteins”; the “expression of E2F-1 and E1A” value is “increased the expression of E2F-1 and E1A similarly to topotecan”.
Regarding `N[C@@H](Cc1ccc(N(CCCl)CCCl)cc1)C(=O)O` [Melphalan, melphalan], the 50% inhibitory concentration (IC50) in [3] (setting [6]) amounted to 0.478 µM; in experiment [3] (setting [7]) it was 0.636 µM; in [4] (setting [6]), 1.42 µM; in experiment [4] (setting [7]), 8.48 µM; in experiment [5] (setting [6]), 0.241 µM; in [5] (setting [7]), 2.02 µM. The concentration for half-maximal inhibition (IC50) was 3.25 µM with Y79 retinoblastoma cells (setting [6]) and 5.83 µM in the experiment on Y79 retinoblastoma cells (setting [7]). The “cell sensitivity to drug after VCN-01 infection” value in the experiment with retinoblastoma cells is on record as “decreased cell sensitivity”.

The term IC50 denotes the concentration needed to halve the response being measured.
